Assay results reported in US20240284907A1, “NOVEL DERIVATIVES OF NON-CODED AMINO ACIDS AND THEIR USE AS HERBICIDES” (FortePhest LTD., priority 2021, published 2024).

What was measured:
Assay type in all cases: in vivo
[1] = tested on: Seeds of Lettuce R. (Super-Jericho); test: Filter paper bioassay with lettuce seeds: germination and early plant development, Minimal Effective Concentration (MEC); details: lettuce seeds on filter paper, 0 to 1 mmol/l, visually assessed after 6 days
Summary of the method: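 Visual scoring on day 6 of radicle and shoot growth gives the MEC, the lowest dose deviating from control (no germination or malformation). Seeds (lettuce Super-Jericho, 10 per plate) sat on filter paper with 0–1 mmol/l aqueous compound, 48 h dark then 4 days 6/18 dark/light, in at least two repeats.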

[2] = tested on: Romaine lettuce (Lactuca sativa L.) plants; test: Post-emergence herbicidal activity on potted Romaine lettuce plants (soil or foliar application); details: lettuce at 2 to 3 leaves, two weeks after treatment
Summary of the method: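 Potted lettuce at the 2-3 leaf stage received compound in 0.1% aqueous Silwet, up to 0.0001%, applied to soil (1 ml/pot) or sprayed on foliage (0.1 ml/pot), 20 plants per concentration. Visual scoring and aboveground wet weight after two weeks; growth inhibition from median weights versus control.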

Amaranth = test: Herbicidal effect on potted weeds, plant development score; details: soil application 1 mg/pot, scale 0 (dead plants) to 5 (healthy, as Control)
Method: (§1) Weed seeds were sawn in 0.3-liter pots, containing medium-heavy clay-loam soil from organic fields (55% clay, 23% silt, 20% sand, 2% organic matter, pH 7.1). The experiment was conducted in a completely randomized design. Each treatment was replicated 3 times (3 pots). Each compound was typically tested on crops (Corn, Wheat, Soy, Cotton, Oat, Chickpea) and weeds (Amaranth, Chenopodium, Lentils, Sinapis, Silybum).
(§2) The herbicides were applied at dose from 0 (control) to 5 mg/pot. The treatment was performed at the day of sawn (pre-emergence treatment). Then the pots were transferred to a mesh house 24 hours after herbicide application and were sprinkler irrigated to field capacity of the soil. Alternatively, the herbicides were applied on grown plants at stage 2-3 true leaves (post-emergence treatment).
(§3) The plants were grown in the mesh house during the entire experiment. Plant development at 6, 12, 19, 26 and 32 days after application (DAA) were evaluated on a scale of 0 to 5, in which 0 represents dead plants and 5 represents healthy plants similar or not different from Control. In the context of the invention, the herbicidal effect was expressed as a score calculated as an average of assessments of plants vigor, height, and leaf color.

Chenopodium = test: as above; details: soil application 1 mg/pot, scale 0 (dead plants) to 5 (healthy, as Control)
Method: as §1, §2, §3

Lentils = test: as above; details: soil application 1 mg/pot, scale 0 (dead plants) to 5 (healthy, as Control)
Method: as §1, §2, §3

Silybum = test: as above; details: soil application 1 mg/pot, scale 0 (dead plants) to 5 (healthy, as Control)
Method: as §1, §2, §3

Sinapis = test: as above; details: soil application 1 mg/pot, scale 0 (dead plants) to 5 (healthy, as Control)
Method: as §1, §2, §3

[3] = tested on: Seeds of Lettuce R. (Super-Jericho); test: Filter paper bioassay with lettuce seeds: germination, Fully Effective Concentration (FEC); details: lowest concentration mostly preventing lettuce seed germination, assessed after 6 days
Text: Materials: Seeds of Lettuce R. (Super-Jericho, non-sterilized) were obtained from Ben Shahar Moshe Ltd., 99% purity. The test compounds listed in the Table 2 below were synthetized de novo or purchased from different vendors.
Filter Paper Bioassays with Lettuce seeds: The protocol is following Bertin et al. 2009 and Movellan et al. 2014 with specified modifications as described below.
Seeds were placed on Whatman no. 1 filter paper (Whatman, Middlesex, U.K.) in Petri dishes (10 seeds per plate) with 2.0 ml of aqueous solution of a test material in concentration ranged from 0 (control) to 1 mmol/l were placed in a tray tilted at 45°. The trays were kept in dark for 48 hours and then transferred to the growth chamber with 6/18 dark/light cycle for 4 days. Each experiment was performed at least with two repeats.
The development of plants' radicle and shoots were visually assessed 6 days after the beginning of the test to determine Fully Effective Concentration (FEC) of a test material. In the context of the invention, FED is defined as the lowest concentration level of a test material that mostly preventing seeds germination.

Row | Molecule | Score (activity score of Minimal Effective Concentration, MEC) [1] | Score (test material causing more than 85% of Growth Inhibition or irreversible plant damage) ([2]; soil application) | Average Herbicidal Effect, Amaranth (Amaranth; post-emergence) | Average Herbicidal Effect, Amaranth (Amaranth; pre-emergence) | Average Herbicidal Effect, Chenopodium (Chenopodium; post-emergence) | Average Herbicidal Effect, Chenopodium (Chenopodium; pre-emergence) | Average Herbicidal Effect, Lentils (Lentils; pre-emergence) | Average Herbicidal Effect, Silybum (Silybum; post-emergence) | Average Herbicidal Effect, Silybum (Silybum; pre-emergence) | Average Herbicidal Effect, Sinapis (Sinapis; post-emergence) | Score (test material causing more than 85% of Growth Inhibition or irreversible plant damage) ([2]; foliar application) | Average Herbicidal Effect, Lentils (Lentils; post-emergence) | Average Herbicidal Effect, Sinapis (Sinapis; pre-emergence) | FEC (Fully Effective Concentration) [3]
1 | 2,2-difluoro-2-[6-(trifluoromethyl)pyridin-2-yl]acetic acid [compound 6651] | Strong (0.01 mM) | moderate (0.5) | 0.5 | 5.0 | 0.5 | 1.5 | 0.0 | 2.0 | 4.0 | 2.0 |  |  |  | 
2 | 2-(2,5-dichloro-1,3-thiazol-4-yl)acetic acid [compound 5637] | Strong (0.01 mM) | strong (0.01 to 0.05) | 3.3 | 1.5 | 2.2 | 1.5 | 0.0 | 1.0 | 0.5 | 0.0 | moderate (0.5) | 1.7 | 3.5 | 0.050 mM
3 | O=C(O)Cc1cc(Cl)sc1Cl [compound 586, 2-(2,5-dichlorothiophen-3-yl) acetic acid] | strong | moderate (0.5) | 3.3 | 2.0 |  | 1.5 | 0.5 | 3.7 | 1.0 | 0.0 | moderate (0.5) | 3.2 | 5.0 | 0.050 mM
4 | CCOC(=O)C(F)(F)c1cc(Cl)sc1Cl [compound 5643, ethyl(2,5-dichlorothiophen-3-yl)(difluoro)acetate] | Moderate (0.1 mM) |  | 4.0 | 0.5 | 5.0 | 4.0 | 5.0 | 3.0 | 0.0 | 5.0 |  | 4.0 | 5.0 | 
5 | O=C([O-])C(F)(F)c1csc(Cl)n1.[Na+] [compound 5666, sodium(2-chloro-1,3-thiazol-4-yl)(difluoro)acetate] | very strong | strong (0.01 to 0.05) | 1.2 | 1.0 | 1.5 | 0.0 | 0.0 | 0.0 | 0.5 | 0.0 | strong (0.01 to 0.05) | 0.0 | 1.0 | 0.010 mM
6 | CCOC(=O)Cc1cc(Cl)sc1Cl [compound 5668, ethyl (2,5-dichlorothiophen-3-yl)acetate] |  | strong (0.01 to 0.05) |  | 3.0 |  | 2.0 | 4.0 |  | 5.0 |  |  |  | 5.0 | 
7 | O=C(O)C(F)(F)c1csc(C(F)(F)F)n1 [compound 5679, 2,2-difluoro-2-[2-(trifluoromethyl)-1,3-thiazol-4-yl]acetic acid] | very strong | strong (0.01 to 0.05) | 1.0 | 4.5 | 1.0 | 1.5 | 0.0 | 2.0 | 2.0 | 1.0 | strong (0.01 to 0.05) | 0.5 | 2.0 | 
8 | CCOC(=O)Cc1cccc(Br)n1 [compound 6635, ethyl 2-(6-bromopyridin-2-yl)acetate] | Moderate (0.1 mM) | moderate (0.5) | 4.0 | 4.0 | 3.0 | 0.5 | 0.0 | 2.5 | 3.0 | 2.0 |  | 0.0 | 3.0 | 
9 | OCC(F)(F)c1cccc(Br)n1 [compound 6643, 2-(6-bromopyridin-2-yl)-2,2-difluoroethan-1-ol] | Moderate (0.1 mM) | moderate (0.5) | 1.0 | 0.0 | 4.0 | 3.0 | 0.0 | 2.0 | 2.5 | 4.0 |  | 0.0 | 4.0 | 
10 | ethyl 2-(6-bromopyridin-2-yl)-2,2-difluoroacetate [compound 6640] | Strong (0.01 mM) | moderate (0.5) | 4.0 |  | 1.0 |  |  | 3.0 |  | 3.0 |  | 2.0 |  | 
